{"source": "patent EP3355943B1", "about": "“METHODS AND SYSTEMS FOR TREATING MEDICAL DEVICES AND FLUIDS” (Ethicon, Inc., priority 2015, dated 2017)", "assay_type_in_all_cases": "biochemical", "key": {"[1]": {"assay": "Wound dressing (fibrin pad) spiked with LPS, treated in cyclohexane containing CaSt", "conditions": "Tube 2: 10 mL cyclohexane with 0.1 g CaSt, 15 minutes rolling; for Endotoxin detected on Pad (EU): pad spiked 8.9 EU", "protocol": "A wound dressing containing dry fibrinogen and dry thrombin on an absorbable support was tested as follows. The pad was spiked with LPS and then exposed to cyclohexane containing CaSt to determine the effect on detectable LPS.\nThree 1x2 inch pieces of the dressing were spiked with endotoxin resulting in 8.9 EU of LPS. The pieces were allowed to dry for 20 minutes, then placed into 50 mL polypropylene conical tubes. 7.5 mL of LAL reagent water +2.5 mL 0.25M tris buffer was added to Tube 1. 10 mL of cyclohexane with 0.1 g of CaSt was added to Tube 2. 10 mL of cyclohexane was added to Tube 3. The tubes were closed and then placed on the bottle roller rotator machine for 15 minutes so that the tube could continuously roll and the dressing was constantly in contact with liquid.\nTube 1 solution was then diluted and tested for endotoxin on the MCS system. The fibrin pad pieces from Tube 2 and Tube 3 were removed and placed in new tubes and extracted in 7.5 mL of LAL reagent water + 2.5 mL 0.25M tris buffer. The solutions were then tested on the MCS system for endotoxin (LPS). Table 9. Results of testing of dressing in cyclohexane containing CaSt"}, "[2]": {"assay": "Suture testing in ethyl acetate containing CaSt: detection of LPS on suture", "conditions": "LPS-contaminated suture submerged in Ethyl Acetate w/ 5% Calcium Stearate, vortexed 10 seconds", "protocol": "An absorbable VICRYL® (Polyglactin 910) suture (Size 1, Length: 27in) made of a copolymer made from 90% glycolide and 10% L-lactide was exposed to a solution containing LPS (endotoxin) (9 Strands of Vicryl suture were immersed in tubing with endotoxin solution (SRW, Concentration: 3980 EU/mL) for 10 minutes at a time at ambient temperature. The sutures were air dried for 20 minutes in a vented chemical hood and then placed in round bottom and dried The suture was then immersed into Ethyl Acetate (EtAc) containing CaSt, vortexed briefly for 10 seconds, dried for 20 minutes in a vented chemical hood, and extracted in endotoxin free water at ambient temperature. The suture extracted in endotoxin free water (LRW) was then tested for LPS using the Kinetic Chromogenic Method for Endotoxin Quantitation, Charles River Laboratories, Charleston S.C."}, "[3]": {"assay": "Detection of LPS after adding CaSt powder to water spiked with LPS (Kinetic Chromogenic Method for Endotoxin Quantitation)", "protocol": "Water and aqueous solutions (containing LPS with various sources of endotoxin) were exposed to calcium stearate [CaSt] […] 5 mL of water solution of known endotoxin concentration (generated by spiking endotoxin-free water with water solution of known endotoxin concentration) was added to the each test tube, vortexed vigorously (1 minute) using Fisher Scientific Digital Vortex Mixer, and then placed in a warm water bath (37°C) for 1 hour. After 1 hour, the tubes were removed from warm water bath and vortexed vigorously (1 minute). Sterile syringes with needles were used to extract the solution without removing the calcium stearate. This solution was then tested for endotoxin levels. Kinetic Chromogenic Method for Endotoxin Quantitation, using Endosafe MCS Multi Cartridge System by Charles River Laboratories, Charleston S.C."}, "[4]": {"assay": "Endotoxin removal by sonicated CaSt suspension stored 1 month", "conditions": "listed as CaSt suspension; for Percent Endotoxin Removal(15 min/30 min): sonicated suspension stored 1 month", "protocol": "10 ml of LRW water (LAL reagent water, contains no endotoxin) containing 0.04 g of CaSt suspension was sonicated using Misonix Probe Sonicator, Model: S-4000, Amplitude: 30, Time: 30 seconds and then the suspension was stored for 1 month at ambient temperature. Then 1 ml of the above suspension was added to 10 ml endotoxin containing water SRW and the resulting endotoxin concentrations in the combined solution measured after 15 min and 30 min, with the results presented in Table 14."}, "[5]": {"assay": "Detection of LPS in water in presence of CaSt and EDTA and Tween 20", "conditions": "5mL, 8330 EU spiked; for Percent detected Endotoxin: 60 min", "protocol": "Further testing was performed with addition of EDTA and Polysorbate 20 reagents to verify permanent removal of LPS/endotoxin activity, by adding EDTA and Polysorbate 20 to the extraction solutions to test for potential recovery of endotoxin activity when introduced to these two substances.\nThe testing was performed in aqueous solutions with added EDTA and Polysorbate 20, with suspended CaSt present in some solutions in varying quantities. […] The tubes were vortexed for 1 minute and placed in a 37C bath for 1 hour. The tubes were removed from the bath and again vortexed for 1 minute. The solutions were diluted and tested for endotoxin using the Kinetic Chromogenic Method for Endotoxin Quantitation, Charles River Laboratories, Charleston S.C. […] These samples were rigorously vortexed and tested using the Kinetic Chromogenic Method for Endotoxin Quantitation, Charles River Laboratories, Charleston S.C. […]"}, "[6]": {"conditions": "0.0027 g CaSt in 5 ml water, 14,400 EU spiked"}, "[7]": {"conditions": "0.0108 g CaSt in 5 ml water, 14,400 EU spiked"}, "[8]": {"conditions": "0.0518 g CaSt in 5 ml water, 14,400 EU spiked"}, "[9]": {"conditions": "0.2502 g CaSt in 5 ml water, 14,400 EU spiked"}, "[10]": {"conditions": "CaSt powder 0.254 g (sample 1), 0.2607 g (sample 2) in 5 ml water, 14,400 EU spiked, 0.254 g CaSt powder added"}, "[11]": {"conditions": "CaSt powder 0.254 g (sample 1), 0.2607 g (sample 2) in 5 ml water, 14,400 EU spiked, 0.2607 g CaSt powder added"}, "[12]": {"conditions": "Weight of Calcium Stearate 0.007 g"}, "[13]": {"conditions": "Weight of Calcium Stearate 0.018 g"}, "[14]": {"conditions": "Weight of Calcium Stearate 0.028 g"}}, "note": "Several values for one entry are separate records, joined by “and”; a condition that tells them apart may be missing. Equal entries are not always repeated.", "data": [{"compound": "CCCCCCCCCCCCCCCCCC(=O)O", "note": "[Calcium Stearate]", "values": [{"measurement": "Percent Endotoxin detected as compared to Tube 1", "setting": "[1]; Tube 1 = no cyclohexane, 8.9 EU", "value": 20.2, "unit": "%"}, {"measurement": "Endotoxin detected on Pad (EU)", "setting": "[1]", "value": 1.8, "unit": "EU"}, {"measurement": "Endotoxin detected on Pad (EU)", "setting": "[1]; listed as CaSt", "value": 2, "unit": "EU"}, {"measurement": "Endotoxin Detected (EU)", "setting": "[2]", "value": "23.4 EU and 21.78 EU and 25.62 EU"}, {"measurement": "Endotoxin Detected (EU)", "setting": "[3]; [6]", "value": "11,055 EU"}, {"measurement": "Percent of detected Endotoxin vs. initial concentration", "setting": "[3]; [6]", "value": "77% and 76.77%"}, {"measurement": "Endotoxin Detected (EU)", "setting": "[3]; [7]", "value": "2,925 EU"}, {"measurement": "Percent of detected Endotoxin vs. initial concentration", "setting": "[3]; [7]", "value": "20% and 20.31%"}, {"measurement": "Endotoxin Detected (EU)", "setting": "[3]; [8]", "value": 9.4, "unit": "EU"}, {"measurement": "Percent of detected Endotoxin vs. initial concentration", "setting": "[3]; [8]", "value": 0.07, "unit": "%"}, {"measurement": "Endotoxin Detected (EU)", "setting": "[3]; [9]", "value": 26.7, "unit": "EU"}, {"measurement": "Percent of detected Endotoxin vs. initial concentration", "setting": "[3]; [9]", "value": 0.19, "unit": "%"}, {"measurement": "Percent of detected Endotoxin vs. initial concentration", "setting": "[3]; CaSt powder 0.252/0.258/0.272/0.267 g (samples 1-4) in 5 ml water, 5.208 EU spiked, 37°C 1 hour, 0.252 g CaSt powder added", "value": "<2.88", "unit": "%"}, {"measurement": "Percent of detected Endotoxin vs. initial concentration", "setting": "[3]; CaSt powder 0.252/0.258/0.272/0.267 g (samples 1-4) in 5 ml water, 5.208 EU spiked, 37°C 1 hour, 0.258 g CaSt powder added", "value": "<8.06", "unit": "%"}, {"measurement": "Percent of detected Endotoxin vs. initial concentration", "setting": "[3]; CaSt powder 0.252/0.258/0.272/0.267 g (samples 1-4) in 5 ml water, 5.208 EU spiked, 37°C 1 hour, 0.267 g CaSt powder added", "value": "<3.46", "unit": "%"}, {"measurement": "Endotoxin Detected (EU)", "setting": "[3]; [10]", "value": 12.1, "unit": "EU"}, {"measurement": "Percent of detected Endotoxin vs. initial concentration", "setting": "[3]; [10]", "value": 0.08, "unit": "%"}, {"measurement": "Endotoxin Detected (EU)", "setting": "[3]; [11]", "value": 10.3, "unit": "EU"}, {"measurement": "Percent of detected Endotoxin vs. initial concentration", "setting": "[3]; [11]", "value": 0.07, "unit": "%"}, {"measurement": "Endotoxin EU/mL (15 min after addition of CaSt suspension)", "setting": "[4]; 0.04 g CaSt in 10 ml LRW sonicated, stored 1 month, added to SRW, initial 732.5 EU/mL, 15 min", "value": "372 EU/mL and 362 EU/mL"}, {"measurement": "Endotoxin EU/mL (30 min after addition of CaSt suspension)", "setting": "[4]; 0.04 g CaSt in 10 ml LRW sonicated, stored 1 month, added to SRW, initial 732.5 EU/mL, 30 min", "value": "384 EU/mL and 278 EU/mL"}, {"measurement": "Percent Endotoxin Removal(15 min/30 min)", "setting": "[4]; 15 min", "value": "49.2% and 50.6%"}, {"measurement": "Percent Endotoxin Removal(15 min/30 min)", "setting": "[4]; 30 min", "value": "47.6% and 62.0%"}, {"measurement": "Endotoxin Detected (EU)", "setting": "[5]; [12]", "value": 3995, "unit": "EU"}, {"measurement": "Percent detected Endotoxin", "setting": "[5]; [12]", "value": 48.0, "unit": "%"}, {"measurement": "Endotoxin Detected (EU)", "setting": "[5]; [13]", "value": 1487.5, "unit": "EU"}, {"measurement": "Percent detected Endotoxin", "setting": "[5]; [13]", "value": 17.9, "unit": "%"}, {"measurement": "Endotoxin Detected (EU)", "setting": "[5]; [14]", "value": 235, "unit": "EU"}, {"measurement": "Percent detected Endotoxin", "setting": "[5]; [14]", "value": 2.8, "unit": "%"}]}]}
